Measured values: ChEMBL document CHEMBL1201862, “PubChem BioAssay data set” (2004)
Activity calls are given as the source filed them. Rule as the data show it, for most assays here: actives have a measured EC50 and inactives only a lower limit.

Key:
[1] = target: T1, RNA-binding protein pos-1 (Caenorhabditis elegans, UniProt G5EF15); assay: inhibitors of POS-1/mex-3 RNA binding, dose response, biochemical, fluorescence polarization (AID 1964);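 also: purified POS-1 fused to maltose binding protein made in E. coli; potency of compounds blocking POS-1 binding to fluorescent RNA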
T1 sequence (G5EF15 whole entry): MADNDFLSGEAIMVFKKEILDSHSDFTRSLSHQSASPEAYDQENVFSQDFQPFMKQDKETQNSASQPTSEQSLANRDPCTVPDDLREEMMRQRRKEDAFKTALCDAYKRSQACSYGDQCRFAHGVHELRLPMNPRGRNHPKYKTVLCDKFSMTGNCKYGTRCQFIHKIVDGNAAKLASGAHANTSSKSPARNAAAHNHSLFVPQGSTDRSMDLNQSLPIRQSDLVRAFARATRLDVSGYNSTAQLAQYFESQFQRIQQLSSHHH

[2] = target: T2, Zinc finger protein mex-5 (Caenorhabditis elegans, UniProt Q9XUB2); assay: MEX-5/TCR-2 RNA interaction inhibitors, dose response, biochemical, C. elegans, fluorescence polarization (AID 1960)
T2 sequence (Q9XUB2 whole entry): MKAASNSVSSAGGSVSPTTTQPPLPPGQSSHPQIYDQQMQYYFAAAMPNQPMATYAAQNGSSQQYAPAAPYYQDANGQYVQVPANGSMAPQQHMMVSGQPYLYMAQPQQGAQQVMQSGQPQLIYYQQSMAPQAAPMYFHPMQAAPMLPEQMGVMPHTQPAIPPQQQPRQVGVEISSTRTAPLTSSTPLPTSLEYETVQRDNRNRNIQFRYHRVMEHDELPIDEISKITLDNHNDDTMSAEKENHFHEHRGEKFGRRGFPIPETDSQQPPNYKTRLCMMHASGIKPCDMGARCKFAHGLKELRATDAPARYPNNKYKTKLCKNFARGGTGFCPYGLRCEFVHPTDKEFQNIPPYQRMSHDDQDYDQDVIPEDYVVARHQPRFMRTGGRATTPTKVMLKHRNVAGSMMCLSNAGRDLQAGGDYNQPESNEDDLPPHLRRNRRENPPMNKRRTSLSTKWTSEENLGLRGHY

Protein skinhead-1 = target: T3, Protein skinhead-1 (Caenorhabditis elegans, UniProt P34707); type: functional
T3 sequence (P34707 whole entry): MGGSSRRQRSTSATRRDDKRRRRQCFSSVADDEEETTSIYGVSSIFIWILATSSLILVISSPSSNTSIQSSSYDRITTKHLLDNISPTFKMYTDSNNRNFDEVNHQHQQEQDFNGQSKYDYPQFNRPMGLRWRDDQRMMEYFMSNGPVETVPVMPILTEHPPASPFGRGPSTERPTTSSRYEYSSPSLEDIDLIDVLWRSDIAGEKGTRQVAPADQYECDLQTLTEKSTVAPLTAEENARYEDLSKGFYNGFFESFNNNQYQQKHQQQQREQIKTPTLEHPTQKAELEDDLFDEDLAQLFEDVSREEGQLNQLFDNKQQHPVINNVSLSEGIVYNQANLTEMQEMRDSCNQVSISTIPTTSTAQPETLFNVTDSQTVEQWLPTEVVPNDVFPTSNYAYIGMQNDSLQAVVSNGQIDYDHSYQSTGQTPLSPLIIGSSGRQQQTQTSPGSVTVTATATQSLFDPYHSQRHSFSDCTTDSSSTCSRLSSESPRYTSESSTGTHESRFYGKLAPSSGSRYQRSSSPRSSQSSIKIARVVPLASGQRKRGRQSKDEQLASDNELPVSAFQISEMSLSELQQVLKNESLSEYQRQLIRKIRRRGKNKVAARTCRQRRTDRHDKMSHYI

[3] = target: Luciferin 4-monooxygenase (Photinus pyralis, UniProt P08659); assay: firefly luciferase enzyme inhibitors, dose response, biochemical, luminescence (AID 1891)
[4] = Luminescence Cell-Based Dose Confirmation HTS to Identify Inhibitors of Platelet Dense Granule Release. [Related pubchem assays: 1663 (Primary HTS), 1678 (Summary of Project)]; type: functional
[5] = HEp-2 cell cytotoxicity, dose response, cytotoxicity control for RSV inhibitor project, HTS (AID 2410); type: functional; settings: human respiratory syncytial virus
[6] = Luminescence Cell-Based Dose Confirmation HTS to Identify Activators of 5'UTR Stem-Loop Driven Alpha-Synuclein mRNA Translation in H4 Neuroglioblastoma Cells. [Related pubchem assays: 1829 (Project Summary), 1814 (Primary HTS)]; type: functional
[7] = Luminescence Cell-Based Dose Response HTS to Identify Activators of Luciferase Translation or Activity in H4 […] Cells. [Related pubchem assays: 1829 (Project Summary), 1814 (Primary HTS)]; type: functional
H4 = assay: Luminescence Cell-Based Dose Response HTS to Identify Activators of 5'UTR Stem-Loop Driven Prion Protein mRNA Translation in H4 Neuroglioblastoma Cells. [Related pubchem assays: 1829 (Project Summary), 1814 (Primary HTS)]; type: functional; settings: Homo sapiens
[8] = inhibitors of firefly luciferase expression or activity, dose response, H4 neuroglioma cells, luminescence (AID 1990); type: functional, cell-based
[9] = Luminescence Cell-Based Dose Response HTS to Identify Inhibitors of 5'UTR Stem-Loop Driven Prion Protein mRNA Translation in H4 Neuroglioblastoma Cells. [Related pubchem assays: 1827 (Project Summary), 1813 (Primary HTS)]; type: functional
[10] = inhibitors of SNCA 5'UTR-driven reporter translation, confirmation, H4 neuroglioma cells, luminescence (AID 1988); type: functional, cell-based
Cytochrome P450 2C9 = Cytochrome P450 2C9 (Homo sapiens, UniProt P11712)
[11] = Luminescence Cell-Based Dose Retest to Confirm Inhibitors of Cancer Stem Cells. [Related pubchem assays (depositor defined):AID2717, AID2721]; type: functional; settings: Homo sapiens

Sequence of Luciferin 4-monooxygenase (P08659 whole entry): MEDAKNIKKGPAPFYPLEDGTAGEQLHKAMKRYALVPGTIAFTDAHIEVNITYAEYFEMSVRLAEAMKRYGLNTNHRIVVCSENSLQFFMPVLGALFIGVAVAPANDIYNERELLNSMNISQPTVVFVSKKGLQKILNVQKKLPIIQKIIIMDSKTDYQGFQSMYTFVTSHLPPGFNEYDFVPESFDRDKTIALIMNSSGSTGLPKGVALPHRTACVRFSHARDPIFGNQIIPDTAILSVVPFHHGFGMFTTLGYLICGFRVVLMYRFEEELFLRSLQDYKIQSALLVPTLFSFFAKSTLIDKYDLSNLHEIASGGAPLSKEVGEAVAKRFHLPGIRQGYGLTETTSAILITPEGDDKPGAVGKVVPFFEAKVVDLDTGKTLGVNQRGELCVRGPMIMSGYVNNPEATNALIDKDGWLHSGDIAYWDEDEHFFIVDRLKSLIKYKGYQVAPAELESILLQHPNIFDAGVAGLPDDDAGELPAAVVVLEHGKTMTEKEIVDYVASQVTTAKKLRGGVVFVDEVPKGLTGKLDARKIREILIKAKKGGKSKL
Sequence of Cytochrome P450 2C9 (P11712 whole entry): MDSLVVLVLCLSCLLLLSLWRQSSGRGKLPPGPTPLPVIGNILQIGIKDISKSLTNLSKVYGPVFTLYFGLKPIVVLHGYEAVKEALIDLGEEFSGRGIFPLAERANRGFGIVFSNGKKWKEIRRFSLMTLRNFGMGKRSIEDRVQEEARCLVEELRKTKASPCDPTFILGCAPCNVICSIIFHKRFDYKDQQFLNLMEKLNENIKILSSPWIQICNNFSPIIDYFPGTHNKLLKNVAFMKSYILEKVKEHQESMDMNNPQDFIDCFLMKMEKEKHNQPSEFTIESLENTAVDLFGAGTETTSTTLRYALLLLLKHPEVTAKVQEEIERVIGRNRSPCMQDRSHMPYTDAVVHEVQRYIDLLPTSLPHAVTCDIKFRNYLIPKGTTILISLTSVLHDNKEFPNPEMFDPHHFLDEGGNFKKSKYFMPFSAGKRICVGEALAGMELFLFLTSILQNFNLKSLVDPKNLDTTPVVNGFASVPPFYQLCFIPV

## CC(C)OC(=O)c1nn2c(C(F)(F)F)cc(-c3ccc(Br)o3)nc2c1Br
[1]
  EC50: > 300 µM (not active)
[2]
  EC50: > 300 µM (not active)

## Brc1ccc(-c2nnc(-c3cccnc3)o2)cc1
Protein skinhead-1
  IC50: 25.1 µM (active)

## Cc1n[nH]c(S/C(C(=O)O)=C2/C(=O)Nc3ccccc32)n1
[1]
  EC50: > 300 µM (not active)
[3]
  EC50: 15.9 µM (active)
[4]
  EC50: > 112 µM (not active)

## CSc1ccc(-c2cc(=O)c3ccccc3o2)cc1
[5]
  CC50: 18.7 µM (active)
Protein skinhead-1
  IC50: 23.9 µM (active)

## CN(C)c1ccc(-n2cc3c(=O)n(C)c(=O)n(C)c3c2)cc1
[6]
  EC50: 45 µM (active)
[7]
  EC50: 21 µM (active)
H4
  EC50: 42.3 µM (active)

## Cc1cc(N2CCN(S(=O)(=O)c3ccc(C)c(C)c3)CC2)c2ccccc2n1
[8]
  EC50: > 120 µM (not active)
[9]
  EC50: 50 µM (active)
[10]
  EC50: > 120 µM (not active)

## COC(=O)CNC(=O)C1Nc2ccc(OC(F)(F)F)cc2C2C=CCC12 (centres undefined)
[1]
  EC50: > 300 µM (not active)
[2]
  EC50: > 300 µM (not active)

## Cc1onc(-c2ccccc2Cl)c1C(=O)NCCn1ccc2ccccc21
Protein skinhead-1
  IC50: > 100 µM (inactive)

## CCCCn1c(SCC(=O)N2c3ccccc3CCc3ccccc32)nc2c1c(=O)n(C)c(=O)n2C
[8]
  EC50: > 120 µM (not active)
[9]
  EC50: 14.2 µM (active)
[10]
  EC50: 15 µM (active)

## N=c1nc(SCCC(=O)O)ss1
[8]
  EC50: 13.4 µM (active)
[9]
  EC50: 15.8 µM (active)
[10]
  EC50: 14 µM (active)

## N#CCCN(C(=O)COC(=O)CCc1c[nH]c2ccccc12)c1ccc(F)cc1
[3]
  EC50: > 112 µM (not active)
[4]
  EC50: 45.7 µM (active)

## O=C(CSc1ncnc2scc(-c3ccc(Cl)cc3)c12)NCc1ccc2c(c1)OCO2
Protein skinhead-1
  IC50: > 100 µM (inactive)

## O=C(NCCc1ccccn1)c1ccc(S(=O)(=O)N2CCCCCC2)cc1
Protein skinhead-1
  IC50: > 100 µM (inactive)

## CCCCOC(=O)CCc1c(C)nc(O)c(C#N)c1C
[3]
  EC50: > 112 µM (not active)
[4]
  EC50: 6.36 µM (active)
Cytochrome P450 2C9
  AC50: 0.282 µM (inconclusive)

## Cc1ccc(Nc2ccc([N+](=O)[O-])ccc2=O)cc1
[1]
  EC50: > 300 µM (not active)
[2]
  EC50: > 300 µM (not active)

## N#CC(=Cc1cccs1)c1nc(-c2ccc(Cl)cc2)cs1
Protein skinhead-1
  IC50: > 100 µM (inactive)

## COc1ccc(/C=N/N=C(/N)N[N+](=O)[O-])c(OC)c1
[3]
  EC50: > 112 µM (not active)
[4]
  EC50: 2.39 µM (active)

## Cc1cccc(NC(=O)NCCN2CCCCC2)c1
Protein skinhead-1
  IC50: > 100 µM (inactive)

## O=C(Nc1ccc(Cl)cn1)c1ccccc1F
Protein skinhead-1
  IC50: 16.3 µM (active)

## Cc1nnc2ccc(-c3ccc(NC(=O)c4ccco4)cc3)nn12
[6]
  EC50: 18.5 µM (active)
[7]
  EC50: 14.4 µM (active)
H4
  EC50: > 120 µM (not active)

## Cc1ccc(-c2csc(NC(CO)c3nc4ccccc4n3CCOCCO)n2)cc1 (centres undefined)
[6]
  EC50: > 120 µM (not active)
[7]
  EC50: > 120 µM (not active)
H4
  EC50: 17.3 µM (active)

## Cc1cc(Nc2cccc([N+](=O)[O-])c2)c2cccc(C)c2n1
[3]
  EC50: > 112 µM (not active)
[4]
  EC50: > 112 µM (not active)

## CC1(C)Cc2c(cnn2-c2cccc(F)c2)C(NC(=O)CSc2ccccn2)C1 (centres undefined)
[1]
  EC50: > 300 µM (not active)
[2]
  EC50: > 150 µM (not active)

## Cc1n[nH]c(O)c1N=Nc1ccc(S(N)(=O)=O)cc1
[1]
  EC50: 78.9 µM (active)
[2]
  EC50: 9.43 µM (inconclusive)

## Sc1nnc(Cc2sc(-c3ccccc3)nc2-c2ccccc2)o1
[8]
  EC50: 18.9 µM (active)
[9]
  EC50: > 120 µM (not active)
[10]
  EC50: > 120 µM (not active)

## O=C(Cn1c2ccccc2c(=O)c2ccccc21)N/N=C/c1ccc(N2CCCC2)c([N+](=O)[O-])c1
[8]
  EC50: 5.67 µM (active)
[9]
  EC50: 7.94 µM (active)
[10]
  EC50: 5.08 µM (active)
[3]
  EC50: > 112 µM (not active)
[4]
  EC50: 27.4 µM (active)
[11]
  AC50: 0.483 µM (active)

## O=C(NCc1ccc(Cl)cc1)c1ccc(-c2ccc(F)c(F)c2)c2ccoc12
Protein skinhead-1
  IC50: > 100 µM (inactive)

## O=C(Nc1ccc(Cl)cn1)c1cc2c(s1)-c1ccccc1OC2
Protein skinhead-1
  IC50: > 100 µM (inactive)

## COc1ccc(NC(=O)c2cccs2)cc1
[3]
  EC50: 17.4 µM (active)
[4]
  EC50: 18.6 µM (active)

## Cc1c(OCc2ccccc2)c(=O)ccn1Cc1ccccc1
[6]
  EC50: 13.4 µM (active)
[7]
  EC50: 9.62 µM (active)
H4
  EC50: 8.26 µM (active)

## CC(=O)c1sc(N/N=C2\CC3CC2C(C)C3(C)C)nc1C (centres undefined)
[6]
  EC50: 0.411 µM (active)
[7]
  EC50: 12.9 µM (active)
H4
  EC50: 11 µM (active)

## Cc1ccc(NC(=O)CC2C(=O)NC3CCCCC3N2C(=O)c2ccc(F)cc2)cc1C (centres undefined)
[3]
  EC50: > 112 µM (not active)
[4]
  EC50: > 112 µM (not active)

## Cc1nnc(O)nc1N/N=C/c1ccc(O)c([N+](=O)[O-])c1
[1]
  EC50: 169 µM (active)
[2]
  EC50: 65.5 µM (active)

## Cc1ccc(-n2cnc3c(sc4nccc(N(C)C)c43)c2=O)cc1
[6]
  EC50: > 120 µM (not active)
[7]
  EC50: 75.7 µM (active)
H4
  EC50: 15.6 µM (active)

## COCCNC(=O)C1Nc2ccc(C(F)(F)F)cc2C2C=CCC12 (centres undefined)
[1]
  EC50: > 300 µM (not active)
[2]
  EC50: > 300 µM (not active)

## COc1ncnc2c1N=C1CC(C)(C)CC(NCCC(=O)O)=C1S2
[1]
  EC50: > 300 µM (not active)
[2]
  EC50: 13.8 µM (active)

## Cc1cccc(N=Nc2c(O)[nH]c3ccc(Br)cc23)c1
[1]
  EC50: 68.3 µM (active)
[2]
  EC50: 26.9 µM (inconclusive)

## FC(F)(F)c1cc(Oc2ccccc2Cl)nc(-c2ccccn2)n1
[8]
  EC50: 7.86 µM (active)
[9]
  EC50: > 120 µM (not active)
[10]
  EC50: 6.37 µM (active)
